Tests used:
h-GABA-A α5β3γ2 [1] = target: T1, h-GABA-A α5β3γ2 (Homo sapiens, UniProt P18507+P31644); assay: [3H]flumazenil competition binding assay on membranes of HEK293 cells expressing GABAA receptors; conditions: Table 1; displacement of [3H]-Flumazenil (0.5 nM), HEK293 cells expressing human receptors, means of two determinations
T1 construct: expressed in transfected cells; host or cells: Xenopus laevis oocytes, micro-injected with subunit RNA
Description: The affinity of compounds at GABAA receptor subtypes was measured by competition for [3H]flumazenil (85 Ci/mmol; Roche) binding to HEK293 cells expressing rat (stably transfected) or human (transiently transfected) receptors of composition α1β3γ2, α2β3γ2, α3β3γ2 and α5β3γ2.
Cell pellets were suspended in Krebs-tris buffer (4.8 mM KCl, 1.2 mM CaCl2, 1.2 mM MgCl2, 120 mM NaCl, 15 mM Tris; pH 7.5; binding assay buffer), homogenized by polytron for ca. 20 sec on ice and centrifuged for 60 min at 4° C. (50000 g; Sorvall, rotor: SM24=20000 rpm). The cell pellets were resuspended in Krebs-tris buffer and homogenized by polytron for ca. 15 sec on ice. Protein was measured (Bradford method, Bio-Rad) and aliquots of 1 mL were prepared and stored at −80° C.
Radioligand binding assays were carried out in a volume of […] (96-well plates) which contained […] of cell membranes, [^3H]-Flumazenil at a concentration of 1 nM for α1, α2, α3 subunits and 0.5 nM for α5 subunits and the test compound in the range of […]. Nonspecific binding was defined by 10^−5 M diazepam and typically represented less than 5% of the total binding. Assays were incubated to equilibrium for 1 hour at 4° C. and harvested onto GF/C uni-filters (Packard) by filtration using a Packard harvester and washing with ice-cold wash buffer (50 mM Tris; pH 7.5). After drying, filter-retained radioactivity was detected by liquid scintillation counting. Ki values were calculated using Excel-Fit (Microsoft) and are the means of two determinations.
In a preferred embodiment the compounds of the invention are binding selective for the α5 subunit relative to the α1, α2 and α3 subunit. Representative test results, obtained by the above described assay measuring binding affinity to HEK293 cells expressing human (h) receptors, are shown in the Table below.

h-GABA-A α5β3γ2 [2] = target: T1, h-GABA-A α5β3γ2; assay: Two-electrode voltage clamp electrophysiology in Xenopus oocytes expressing GABAA receptors (modulation of GABA EC20 current); type: cell-based; conditions: Table 1; for Efficacy (GABA) %: % modulation of GABA EC20 = 100*(Fold increase-1); for Fold increase h-GABA-A α5β3γ2 oocyte: Xenopus oocytes, GABA EC20, test compound at approximatively 30 fold its Ki
Description: Xenopus laevis oocytes at maturation stages V-VI were used for the expression of cloned mRNA encoding GABAA receptor subunits. Oocytes ready for RNA micro-injection were bought from Ecocyte, Castrop-Rauxel, Germany and stored in modified Barth's medium (composition in mM: NaCl 88, KCl 1, NaHCO3 2.4, HEPES 10, MgSO4 0.82, CaNO3 0.33, CaCl2 0.33, pH=7.5) at 20° C. until the experiment.
Oocytes were plated in 96-well plates to be used in an automated instrument (Robo-ocyte, MultiChannelSystems, Reutlingen, Germany) for microinjection and electrophysiological recordings. Approximately 50 nl of an aqueous solution containing the RNA transcripts for the subunits of the desired GABAA receptor was injected into each oocyte. RNA concentrations ranged between 0.3 and 16 ng/μl/subunit and were adjusted in pilot experiments to obtain GABA responses of a suitable size and a maximal effect of the reference modulator, Beta-CCM (3-CCM), a betacarboline negative allosteric modulator (NAM) at the GABAA receptor benzodiazepine (BZD) binding site or Midazolam, a benzodiazepine positive allosteric modulator (PAM) at the GABAA receptor benzodiazepine (BZD) binding site. The concentration of the γ2 subunit encoding RNA usually was 5- to 10-fold higher than the RNAs encoding the other subunits. Oocytes were kept in modified Barth's medium (composition in mM: NaCl 88, KCl 1, NaHCO3 4, HEPES 10, MgSO4 0.82, CaNO3 0.33, CaCl2 0.33, pH=7.5) at 20° C. until the experiment.
Electrophysiological experiments were performed on days 3 to 5 after the micro-injection of mRNA. During the experiment the oocytes were constantly superfused by a solution containing (in mM) NaCl 90, KCl 1, HEPES 5, MgCl2 1, CaCl2 1 (pH 7.4). Oocytes were impaled by two glass microelectrodes (resistance: 0.4 MQ) which were filled with a solution containing KCl 1M+K-acetate 1.5 M and voltage-clamped to −80 mV. The recordings were performed at room temperature using the Roboocyte two-electrode voltage clamp system (Multichannelsystem). After an initial equilibration period of 1.5 min GABA was added for 1.5 min at a concentration evoking approximately 20% of a maximal current response (EC20). After another rest interval of 2.5 min GABA was again added evoking a response of similar amplitude and shape. 0.5 min after the onset of this second GABA application the test compound, at a concentration corresponding to approximatively 30 fold its Ki, was added while GABA was still present. Current traces were recorded at a digitization rate of 10 Hz during and shortly before and after the GABA application.
Each compound and concentration was tested on at least 3 oocytes. Different oocytes were used for different compound concentrations. β-CCM, a negative allosteric modulator, or Midazolam, a positive allosteric modulators, were tested on a few (3-6) oocytes on each 96-well plate for a positive control at a maximally effective. β-CCM inhibited the GABA-evoked current by approximatively 50% (Fold increase 0.5), while Midazolam potentiated the GABA-induced current by approximatively 150% (Fold increase 2.5).
For the analysis, the digitized current traces of the first and second GABA response were superimposed and, if necessary, rescaled to equal maximal amplitudes. The ratio between the two responses during the time interval of test compound application was calculated point by point. The extremum of the resulting “ratio trace” was taken as the efficacy (“Fold increase”) of the compound expressed as “% modulation of GABA EC20” (100*(Fold increase-1)).

With `Cc1nnn(-c2ccc(Cl)cc2F)c1Cn1ncc(N2CC(OCC(F)(F)F)C2)cc1=O` [Example 34, 2-[[3-(4-chloro-2-fluoro-phenyl)-5-methyl-triazol-4-yl]methyl]-5-[3-(2,2,2-trifluoro-ethoxy)azetidin-1-yl]pyridazin-3-one] the Ki (h-GABA-A α5β3γ2 [1]) was 0.0442 µM, the “Efficacy (GABA) %” value (h-GABA-A α5β3γ2 [2]) was 85% and the “Fold increase h-GABA-A α5β3γ2 oocyte” value (h-GABA-A α5β3γ2 [2]) was 1.85.

In the case of `Cc1nnn(-c2ccc(Cl)cc2F)c1Cn1ncc(N2CCO[C@@H](C)C2)cc1=O` [Example 35, 2-[[3-(4-chloro-2-fluoro-phenyl)-5-methyl-triazol-4-yl]methyl]-5-[(2S)-2-methylmorpholin-4-yl]pyridazin-3-one], the Ki (h-GABA-A α5β3γ2 [1]) is reported as 0.0104 µM, the “Efficacy (GABA) %” value (h-GABA-A α5β3γ2 [2]) is reported as 130% and the “Fold increase h-GABA-A α5β3γ2 oocyte” value (h-GABA-A α5β3γ2 [2]) is reported as 2.3.

In the case of `Cc1nnn(-c2ccc(Cl)cc2F)c1Cn1ncc(N2CCO[C@H](C)C2)cc1=O` [Example 36, 2-[[3-(4-chloro-2-fluoro-phenyl)-5-methyl-triazol-4-yl]methyl]-5-[(2R)-2-methylmorpholin-4-yl]pyridazin-3-one], the Ki (h-GABA-A α5β3γ2 [1]) is reported as 0.0124 µM, the “Efficacy (GABA) %” value (h-GABA-A α5β3γ2 [2]) is reported as 106% and the “Fold increase h-GABA-A α5β3γ2 oocyte” value (h-GABA-A α5β3γ2 [2]) is reported as 2.06.

In the case of `Cc1nnn(-c2ccc(Cl)cc2F)c1Cn1ncc(N2CCC(n3ccnc3C)CC2)cc1=O` [Example 38, 2-[[3-(4-chloro-2-fluoro-phenyl)-5-methyl-triazol-4-yl]methyl]-5-[4-(2-methylimidazol-1-yl)-1-piperidyl]pyridazin-3-one], the Ki (h-GABA-A α5β3γ2 [1]) is reported as 0.0056 µM, the “Efficacy (GABA) %” value (h-GABA-A α5β3γ2 [2]) is reported as 78% and the “Fold increase h-GABA-A α5β3γ2 oocyte” value (h-GABA-A α5β3γ2 [2]) is reported as 1.78.

`COc1ncccc1N1CCN(c2cnn(Cc3c(C)nnn3-c3ccc(Cl)cc3F)c(=O)c2)CC1` [Example 39, 2-[[3-(4-chloro-2-fluoro-phenyl)-5-methyl-triazol-4-yl]methyl]-5-[4-(2-methoxy-3-pyridyl)piperazin-1-yl]pyridazin-3-one] was tested, and the Ki (h-GABA-A α5β3γ2 [1]) was 0.0115 µM, the “Efficacy (GABA) %” value (h-GABA-A α5β3γ2 [2]) was 108% and the “Fold increase h-GABA-A α5β3γ2 oocyte” value (h-GABA-A α5β3γ2 [2]) was 2.08.

In the case of `CC(C)N1CCN(c2cnn(Cc3c(-c4ccc(Cl)cc4)nnn3C)c(=O)c2)C[C@@H]1C` [Example 40, 2-[[5-(4-chlorophenyl)-3-methyl-triazol-4-yl]methyl]-5-[(3S)-4-isopropyl-3-methyl-piperazin-1-yl]pyridazin-3-one], the Ki (h-GABA-A α5β3γ2 [1]) is reported as 0.0202 µM, the “Efficacy (GABA) %” value (h-GABA-A α5β3γ2 [2]) is reported as 103% and the “Fold increase h-GABA-A α5β3γ2 oocyte” value (h-GABA-A α5β3γ2 [2]) is reported as 2.03.

`CCOC1CN(c2cnn(Cc3c(-c4ccc(Cl)cc4)nnn3C)c(=O)c2)C1` [Example 41, 2-[[5-(4-chlorophenyl)-3-methyl-triazol-4-yl]methyl]-5-(3-ethoxyazetidin-1-yl)pyridazin-3-one] was tested, and the Ki (h-GABA-A α5β3γ2 [1]) was 0.0377 µM, the “Efficacy (GABA) %” value (h-GABA-A α5β3γ2 [2]) was 47% and the “Fold increase h-GABA-A α5β3γ2 oocyte” value (h-GABA-A α5β3γ2 [2]) was 1.47.

`CC(C)O[C@@H]1CCN(c2cnn(Cc3c(-c4ccc(Cl)cc4F)nnn3C)c(=O)c2)C1` [Example 42, 2-((5-(4-chloro-2-fluoro-phenyl)-3-methyl-triazol-4-yl)methyl)-5-((3R)-3-isopropoxy-pyrrolidin-1-yl)pyridazin-3-one] was tested, and the Ki (h-GABA-A α5β3γ2 [1]) was 0.0183 µM, the “Efficacy (GABA) %” value (h-GABA-A α5β3γ2 [2]) was 71% and the “Fold increase h-GABA-A α5β3γ2 oocyte” value (h-GABA-A α5β3γ2 [2]) was 1.71.

With `Cn1nnc(-c2ccc(Cl)cc2F)c1Cn1ncc(N2CC(Oc3ccccn3)C2)cc1=O` [Example 43, 2-((5-(4-chloro-2-fluoro-phenyl)-3-methyl-triazol-4-yl)methyl)-5-(3-(2-pyridyl-oxy)azetidin-1-yl)pyridazin-3-one] the Ki (h-GABA-A α5β3γ2 [1]) was 0.0079 µM, the “Efficacy (GABA) %” value (h-GABA-A α5β3γ2 [2]) was 97% and the “Fold increase h-GABA-A α5β3γ2 oocyte” value (h-GABA-A α5β3γ2 [2]) was 1.97.

For `CC(C)N1CCN(c2cnn(Cc3c(-c4ccc(Cl)cc4F)nnn3C)c(=O)c2)C[C@@H]1C` [Example 44, 2-((5-(4-chloro-2-fluoro-phenyl)-3-methyl-triazol-4-yl)methyl)-5-((3S)-4-isopropyl-3-methyl-piperazin-1-yl)pyridazin-3-one], the Ki (h-GABA-A α5β3γ2 [1]) was 0.0044 µM, the “Efficacy (GABA) %” value (h-GABA-A α5β3γ2 [2]) was 82% and the “Fold increase h-GABA-A α5β3γ2 oocyte” value (h-GABA-A α5β3γ2 [2]) was 1.82.

`C[C@H]1CN(c2cnn(Cc3c(-c4ccc(Cl)cc4F)nnn3C)c(=O)c2)CCO1` [Example 45, 2-((5-(4-chloro-2-fluoro-phenyl)-3-methyl-triazol-4-yl)methyl)-5-((2S)-2-methylmorpholin-4-yl)pyridazin-3-one] was tested, and the Ki (h-GABA-A α5β3γ2 [1]) was 0.0014 µM, the “Efficacy (GABA) %” value (h-GABA-A α5β3γ2 [2]) was 115% and the “Fold increase h-GABA-A α5β3γ2 oocyte” value (h-GABA-A α5β3γ2 [2]) was 2.15.

For `C[C@@H]1CN(c2cnn(Cc3c(-c4ccc(Cl)cc4F)nnn3C)c(=O)c2)CCO1` [Example 46, 2-((5-(4-chloro-2-fluoro-phenyl)-3-methyl-triazol-4-yl)methyl)-5-((2R)-2-methylmorpholin-4-yl)pyridazin-3-one], the Ki (h-GABA-A α5β3γ2 [1]) was 0.0016 µM, the “Efficacy (GABA) %” value (h-GABA-A α5β3γ2 [2]) was 86% and the “Fold increase h-GABA-A α5β3γ2 oocyte” value (h-GABA-A α5β3γ2 [2]) was 1.86.

In the case of `CCc1nccn1C1CCN(c2cnn(Cc3c(C)nnn3-c3ccc(Cl)cc3F)c(=O)c2)CC1` [Example 47, 2-[[3-(4-chloro-2-fluoro-phenyl)-5-methyl-triazol-4-yl]methyl]-5-[4-(2-ethylimidazol-1-yl)-1-piperidyl]pyridazin-3-one], the Ki (h-GABA-A α5β3γ2 [1]) is reported as 0.0132 µM, the “Efficacy (GABA) %” value (h-GABA-A α5β3γ2 [2]) is reported as 130% and the “Fold increase h-GABA-A α5β3γ2 oocyte” value (h-GABA-A α5β3γ2 [2]) is reported as 2.3.

`CC(C)OC1CN(c2cnn(Cc3c(-c4ccc(Cl)cc4F)nnn3C)c(=O)c2)C1` [Example 48, 2-((5-(4-chloro-2-fluoro-phenyl)-3-methyl-triazol-4-yl)methyl)-5-(3-isopropoxyazetidin-1-yl)pyridazin-3-one] was tested, and the Ki (h-GABA-A α5β3γ2 [1]) was 0.0085 µM, the “Efficacy (GABA) %” value (h-GABA-A α5β3γ2 [2]) was 52% and the “Fold increase h-GABA-A α5β3γ2 oocyte” value (h-GABA-A α5β3γ2 [2]) was 1.52.

`Cn1nnc(-c2ccc(Cl)cc2F)c1Cn1ncc(N2CC(OC3CCC3)C2)cc1=O` [Example 49, 2-((5-(4-chloro-2-fluoro-phenyl)-3-methyl-triazol-4-yl)methyl)-5-(3-(cyclobutoxy)azetidin-1-yl)pyridazin-3-one] was tested, and the Ki (h-GABA-A α5β3γ2 [1]) was 0.0083 µM, the “Efficacy (GABA) %” value (h-GABA-A α5β3γ2 [2]) was 73% and the “Fold increase h-GABA-A α5β3γ2 oocyte” value (h-GABA-A α5β3γ2 [2]) was 1.73.

For `Cn1nnc(-c2ccc(Cl)cc2F)c1Cn1ncc(N2CC(OCC(F)(F)F)C2)cc1=O` [Example 50, 2-((5-(4-chloro-2-fluoro-phenyl)-3-methyl-triazol-4-yl)methyl)-5-(3-(2,2,2-trifluoro-ethoxy)azetidin-1-yl)pyridazin-3-one], the Ki (h-GABA-A α5β3γ2 [1]) was 0.0052 µM, the “Efficacy (GABA) %” value (h-GABA-A α5β3γ2 [2]) was 67% and the “Fold increase h-GABA-A α5β3γ2 oocyte” value (h-GABA-A α5β3γ2 [2]) was 1.67.

`CCCOC1CN(c2cnn(Cc3c(-c4ccc(Cl)cc4F)nnn3C)c(=O)c2)C1` [Example 51, 2-((5-(4-chloro-2-fluoro-phenyl)-3-methyl-triazol-4-yl)methyl)-5-(3-propoxyazetidin-1-yl)pyridazin-3-one] was tested, and the Ki (h-GABA-A α5β3γ2 [1]) was 0.0214 µM, the “Efficacy (GABA) %” value (h-GABA-A α5β3γ2 [2]) was 94% and the “Fold increase h-GABA-A α5β3γ2 oocyte” value (h-GABA-A α5β3γ2 [2]) was 1.94.
